Data from US10323038B2, “Pyrazole compounds and methods of making and using same” (ABIDE THERAPEUTICS, INC., priority 2015, dated 2019).

Tests used:
[1] = biological target: T1, MAGL (Mus musculus (Mouse), UniProt O35678); experiment: Mouse brain proteomes from inhibitor treated mice (oral gavage, 4 h), MAGL; type: in vivo; conditions: read-out: MAGL % inh. 5 mg/kg (mouse)
Description: Preparation of Mouse Brain Proteomes from Inhibitor Treated Mice.
Inhibitors were administered to wild-type C57Bl/6J by oral gavage in a vehicle of polyethylene glycol. Each animal was sacrificed 4 h following administration and brain proteomes were prepared and analyzed according to previously established methods (See Niphakis, M. J., et al. (2011) ACS Chem. Neurosci. and Long, J. Z., et al. Nat. Chem. Biol. 5:37-44).

[2] = biological target: T1, MAGL; experiment: In vitro competitive activity-based protein profiling, MAGL (mouse); type: biochemical; conditions: for inhibition at 1 µM: read-out: MAGL % inh. 1 μM (mouse)
Method in brief: (§1)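 Gel-based read-out: fluorescence intensity of MAGL and FAAH bands after SDS-PAGE gave serine hydrolase activity. Proteomes at 1.0 mg/mL were pretreated 30 min at 37° C with inhibitor over a concentration range, then labelled 30 min with FP-Rh or HT-01 (stock 50 μM in DMSO).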

[3] = biological target: FAAH (Mus musculus (Mouse), UniProt O08914); experiment: In vitro competitive activity-based protein profiling, FAAH (mouse); type: biochemical; conditions: for inhibition at 1 µM: read-out: FAAH % inh. 1 μM (mouse)
Method in brief: as §1

[4] = biological target: MAGL (Homo sapiens (Human), UniProt Q99685); experiment: In vitro competitive activity-based protein profiling, MAGL (human); type: biochemical; conditions: 10 μM, human proteome; read-out: MAGL % inh. 10 μM (human)
Description: (§2) In Vitro Competitive Activity-Based Protein Profiling.
(§3) Proteomes (mouse brain membrane fraction or cell lysates for mouse assays; human prefrontal cortex or cell membrane fractions for human assays) (50 μL, 1.0 mg/mL total protein concentration) were preincubated with varying concentrations of inhibitors at 37° C. After 30 min, FP—Rh or HT-01 (1.0 μL, 50 μM in DMSO) was added and the mixture was incubated for another 30 min at 37° C. Reactions were quenched with SDS loading buffer (15 μL-4×) and run on SDS-PAGE. Following gel imaging, serine hydrolase activity was determined by measuring fluorescent intensity of gel bands corresponding to MAGL and FAAH using ImageJ 1.43u software.

[5] = biological target: FAAH (Homo sapiens (Human), UniProt O00519); experiment: In vitro competitive activity-based protein profiling, FAAH (human); type: biochemical; conditions: 10 μM, human proteome; read-out: FAAH % inh. 10 μM (human)
Description: as §2, §3

Chain of FAAH (Mus musculus (Mouse), UniProt O08914) (O08914 whole entry): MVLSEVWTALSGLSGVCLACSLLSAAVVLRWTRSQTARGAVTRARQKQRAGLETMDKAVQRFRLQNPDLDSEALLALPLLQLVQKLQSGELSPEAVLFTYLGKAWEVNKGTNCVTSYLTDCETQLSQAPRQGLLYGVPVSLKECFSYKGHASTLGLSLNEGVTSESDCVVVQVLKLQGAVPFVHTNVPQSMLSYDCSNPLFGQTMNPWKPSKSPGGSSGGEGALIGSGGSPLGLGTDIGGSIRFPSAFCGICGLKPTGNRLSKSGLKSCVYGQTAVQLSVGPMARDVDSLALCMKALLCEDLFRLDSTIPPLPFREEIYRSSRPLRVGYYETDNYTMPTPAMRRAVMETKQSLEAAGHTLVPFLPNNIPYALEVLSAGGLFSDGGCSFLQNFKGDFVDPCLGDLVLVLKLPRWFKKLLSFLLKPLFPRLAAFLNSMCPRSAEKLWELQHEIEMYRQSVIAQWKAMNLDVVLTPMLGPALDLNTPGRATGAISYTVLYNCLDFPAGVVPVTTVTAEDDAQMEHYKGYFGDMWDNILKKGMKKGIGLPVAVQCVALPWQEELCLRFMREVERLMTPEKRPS
Chain of FAAH (Homo sapiens (Human), UniProt O00519) (O00519 whole entry): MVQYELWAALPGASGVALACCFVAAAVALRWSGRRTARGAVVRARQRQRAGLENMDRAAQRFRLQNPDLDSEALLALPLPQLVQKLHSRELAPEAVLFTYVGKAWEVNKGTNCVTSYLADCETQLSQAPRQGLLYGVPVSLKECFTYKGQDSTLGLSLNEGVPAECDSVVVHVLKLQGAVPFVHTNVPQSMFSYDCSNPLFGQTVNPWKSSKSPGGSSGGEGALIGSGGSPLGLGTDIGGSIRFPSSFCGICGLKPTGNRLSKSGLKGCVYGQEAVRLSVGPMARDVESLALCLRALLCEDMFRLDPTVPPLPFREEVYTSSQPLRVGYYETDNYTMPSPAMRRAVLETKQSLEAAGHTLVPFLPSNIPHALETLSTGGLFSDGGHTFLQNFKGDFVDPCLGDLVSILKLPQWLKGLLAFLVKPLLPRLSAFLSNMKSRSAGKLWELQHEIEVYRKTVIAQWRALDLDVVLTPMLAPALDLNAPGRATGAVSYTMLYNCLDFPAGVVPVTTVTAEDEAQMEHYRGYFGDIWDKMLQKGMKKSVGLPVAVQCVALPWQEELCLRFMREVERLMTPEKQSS
Chain of MAGL (Homo sapiens (Human), UniProt Q99685) (Q99685 whole entry): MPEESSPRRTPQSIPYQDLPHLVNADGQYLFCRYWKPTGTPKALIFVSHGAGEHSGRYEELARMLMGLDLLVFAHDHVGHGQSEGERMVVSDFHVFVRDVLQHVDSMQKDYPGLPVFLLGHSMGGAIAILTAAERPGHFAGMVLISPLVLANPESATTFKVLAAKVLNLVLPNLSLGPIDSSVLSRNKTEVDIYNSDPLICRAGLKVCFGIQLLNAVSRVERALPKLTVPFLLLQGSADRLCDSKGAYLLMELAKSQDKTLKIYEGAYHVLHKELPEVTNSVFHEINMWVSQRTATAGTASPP
T1 sequence (O35678 whole entry): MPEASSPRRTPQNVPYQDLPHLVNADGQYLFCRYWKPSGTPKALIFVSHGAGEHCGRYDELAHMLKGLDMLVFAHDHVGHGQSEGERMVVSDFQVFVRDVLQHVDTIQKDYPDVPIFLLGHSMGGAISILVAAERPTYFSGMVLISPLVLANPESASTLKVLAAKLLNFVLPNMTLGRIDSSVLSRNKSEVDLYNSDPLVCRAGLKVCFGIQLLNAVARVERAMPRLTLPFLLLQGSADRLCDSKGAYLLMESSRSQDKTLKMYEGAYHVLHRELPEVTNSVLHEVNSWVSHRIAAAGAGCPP

SMILES | inhibition at 5 mg/kg [1] | IC50 [2] | inhibition at 1 µM [2] | IC50 [3] | inhibition at 1 µM [3] | inhibition at 10 µM [4] | inhibition at 10 µM [5]
CS(=O)(=O)Nc1cnn(C(=O)N2CCC3(CCN(Cc4cc(Cl)cc(C(F)(F)F)c4)C3)CC2)c1 [Example 297, N-(1-(2-(3-chloro-5-(trifluoromethyl)benzyl)-2,8-diazaspiro[4.5]decane-8-carbonyl)-1H-pyrazol-4-yl)methanesulfonamide] | ≥ 75% | ≤ 100 nM | ≥ 75% | ≤ 100 nM | ≥ 75% |  | 
CC(=O)Nc1cnn(C(=O)N2CCN(Cc3ccc(C(F)(F)F)cc3N3CCCC3)CC2)c1 [Example 217, N-(1-(4-(2-(pyrrolidin-1-yl)-4-(trifluoromethyl)benzyl)piperazine-1-carbonyl)-1H-pyrazol-4-yl)acetamide] | ≥ 75% | ≤ 100 nM | ≥ 75% | 1000 to 10000 nM | 25 to 50% |  | 
CC(=O)Nc1cnn(C(=O)N2CCC3(CCN(Cc4cc(Cl)cc(C(F)(F)F)c4)C3)CC2)c1 [Example 313, N-(1-(2-(3-chloro-5-(trifluoromethyl)benzyl)-2,8-diazaspiro[4.5]decane-8-carbonyl)-1H-pyrazol-4-yl)acetamide] | ≥ 75% |  | ≥ 75% |  | ≥ 75% |  | 
CC(=O)N(C)c1cnn(C(=O)N2CC3CN(Cc4ccc(N5CCOCC5)cc4)CC3C2)c1 (stereo not drawn) [Example 15, N-methyl-N-(1-(5-(4-morpholinobenzyl)octahydropyrrolo[3,4-c]pyrrole-2-carbonyl)-1H-pyrazol-4-yl)acetamide] |  |  | 0 to 25% |  | 25 to 50% | ≥ 75% | ≥ 75%
Cc1cc(-c2ccccc2)ccc1CN1CCN(C(=O)n2cc(NS(C)(=O)=O)cn2)CC1 [Example 219, N-(1-(4-((3-methyl-[1,1′-biphenyl]-4-yl)methyl)piperazine-1-carbonyl)-1H-pyrazol-4-yl)methanesulfonamide] | ≥ 75% | 1000 to 10000 nM | ≥ 75% | ≤ 100 nM | ≥ 75% |  | 
CC(=O)N(C)c1cnn(C(=O)N2C[C@H]3C[C@H](N(C)Cc4ccc(Cl)cc4)C[C@H]3C2)c1 [Example 148, N-(1-(trans-5-((4-chlorobenzyl)(methyl)amino)octahydrocyclopenta[c]pyrrole-2-carbonyl)-1H-pyrazol-4-yl)-N-methylacetamide] | ≥ 75% | ≤ 100 nM | ≥ 75% | ≤ 100 nM | ≥ 75% |  | 
CC(=O)N(C)c1cnn(C(=O)N2CC3(CCN(Cc4ccc(N5CCOCC5)cc4)CC3)C2)c1 [Example 21, N-methyl-N-(1-(7-(4-morpholinobenzyl)-2,7-diazaspiro[3.5]nonane-2-carbonyl)-1H-pyrazol-4-yl)acetamide] |  |  | 0 to 25% |  | 25 to 50% | 0 to 25% | ≥ 75%
CC(=O)N(C)c1cnn(C(=O)N2CCC3(CCN(Cc4ccc(CN5CCOCC5)cc4)C3)C2)c1 (stereo not drawn) [Example 231, N-methyl-N-(1-(7-(4-(morpholinomethyl)benzyl)-2,7-diazaspiro[4.4]nonane-2-carbonyl)-1H-pyrazol-4-yl)acetamide] |  |  | 0 to 25% |  | 0 to 25% | ≥ 75% | 25 to 50%
CC(=O)N(C)c1cnn(C(=O)N2C[C@H]3C[C@@H](NCc4cccc(Cl)c4)C[C@H]3C2)c1 [Example 134, N-(1-(cis-5-(3-chlorobenzylamino)octahydrocyclopenta[c]pyrrole-2-carbonyl)-1H-pyrazol-4-yl)-N-methylacetamide] |  |  | 0 to 25% |  | ≥ 75% | ≥ 75% | ≥ 75%

More lines, now with the values ahead:

inhibition at 5 mg/kg [1] | IC50 [2] | inhibition at 1 µM [2] | IC50 [3] | inhibition at 1 µM [3] | inhibition at 10 µM [4] | inhibition at 10 µM [5] | SMILES
≥ 75% | 100 to 1000 nM | ≥ 75% | ≤ 100 nM | ≥ 75% |  |  | CC(=O)N(C)c1cnn(C(=O)N2CCC3(CCN(Cc4ccccc4C(F)(F)F)C3)C2)c1 (stereo not drawn) [Example 58, N-methyl-N-(1-(7-(2-(trifluoromethyl)benzyl)-2,7-diazaspiro[4.4]nonane-2-carbonyl)-1H-pyrazol-4-yl)acetamide]
≥ 75% | 100 to 1000 nM | 50 to 75% | ≤ 100 nM | ≥ 75% |  |  | CC(=O)N(C)c1cnn(C(=O)N2CCC3(CCN(Cc4ccccc4Cl)C3)C2)c1 (stereo not drawn) [Example 50, N-(1-(7-(2-chlorobenzyl)-2,7-diazaspiro[4.4]nonane-2-carbonyl)-1H-pyrazol-4-yl)-N-methylacetamide]
 |  | 0 to 25% |  | ≥ 75% | ≥ 75% | ≥ 75% | CC(=O)N(C)c1cnn(C(=O)N2CCC3(CCN(Cc4cccc(F)c4)C3)C2)c1 (stereo not drawn) [Example 79, N-(1-(7-(3-fluorobenzyl)-2,7-diazaspiro[4.4]nonane-2-carbonyl)-1H-pyrazol-4-yl)-N-methylacetamide]
 |  | 0 to 25% |  | ≥ 75% | ≥ 75% | ≥ 75% | CC(=O)N(C)c1cnn(C(=O)N2CCC3(CCN(Cc4ccccc4F)C3)C2)c1 (stereo not drawn) [Example 52, N-(1-(7-(2-fluorobenzyl)-2,7-diazaspiro[4.4]nonane-2-carbonyl)-1H-pyrazol-4-yl)-N-methylacetamide]
 |  | 0 to 25% |  | 0 to 25% | ≥ 75% | ≥ 75% | CC(=O)N(C)c1cnn(C(=O)N2CCC3(CCN(Cc4ccccc4N4CCCC4)C3)C2)c1 (stereo not drawn) [Example 60, N-methyl-N-(1-(7-(2-(pyrrolidin-1-yl)benzyl)-2,7-diazaspiro[4.4]nonane-2-carbonyl)-1H-pyrazol-4-yl)acetamide]
 |  | 0 to 25% |  | 50 to 75% | ≥ 75% | ≥ 75% | CC(=O)N(C)c1cnn(C(=O)N2CCC3(CCN(Cc4ccc(N5CCOCC5)cc4C)C3)C2)c1 (stereo not drawn) [Example 5, N-methyl-N-(1-(7-(2-methyl-4-morpholinobenzyl)-2,7-diazaspiro[4.4]nonane-2-carbonyl)-1H-pyrazol-4-yl)acetamide]
 |  | 0 to 25% |  | 25 to 50% | ≥ 75% | ≥ 75% | CC(=O)N(C)c1cnn(C(=O)N2CCC3(CCN(Cc4cccc(N5CCOCC5)c4)C3)C2)c1 (stereo not drawn) [Example 48, N-methyl-N-(1-(7-(3-morpholinobenzyl)-2,7-diazaspiro[4.4]nonane-2-carbonyl)-1H-pyrazol-4-yl)acetamide]
 |  | 0 to 25% |  | 50 to 75% | ≥ 75% | ≥ 75% | CC(=O)N(C)c1cnn(C(=O)N2CCC3(CCN(Cc4ccc(F)cc4)C3)C2)c1 (stereo not drawn) [Example 75, N-(1-(7-(4-fluorobenzyl)-2,7-diazaspiro[4.4]nonane-2-carbonyl)-1H-pyrazol-4-yl)-N-methylacetamide]
 |  | 0 to 25% |  | 50 to 75% | ≥ 75% | ≥ 75% | COc1cccc(CN2CCC3(CCN(C(=O)n4cc(N(C)C(C)=O)cn4)C3)C2)c1 (stereo not drawn) [Example 81, N-(1-(7-(3-methoxybenzyl)-2,7-diazaspiro[4.4]nonane-2-carbonyl)-1H-pyrazol-4-yl)-N-methylacetamide]
 |  | 0 to 25% |  | ≥ 75% | ≥ 75% | ≥ 75% | CC(=O)N(C)c1cnn(C(=O)N2CCC3(CCN(Cc4ccccc4C)C3)C2)c1 (stereo not drawn) [Example 54, N-methyl-N-(1-(7-(2-methylbenzyl)-2,7-diazaspiro[4.4]nonane-2-carbonyl)-1H-pyrazol-4-yl)acetamide]
 |  | 0 to 25% |  | 50 to 75% | ≥ 75% | ≥ 75% | CC(=O)N(C)c1cnn(C(=O)N2CCC3(CCN(Cc4ccc(C)cc4)C3)C2)c1 (stereo not drawn) [Example 76, N-methyl-N-(1-(7-(4-methylbenzyl)-2,7-diazaspiro[4.4]nonane-2-carbonyl)-1H-pyrazol-4-yl)acetamide]
 |  | 0 to 25% |  | ≥ 75% | ≥ 75% | 50 to 75% | CC(=O)N(C)c1cnn(C(=O)N2CC3(CCN(Cc4ccc(-c5ccccc5)cc4C)CC3)C2)c1 [Example 222, N-methyl-N-(1-(7-((3-methyl-[1,1′-biphenyl]-4-yl)methyl)-2,7-diazaspiro[3.5]nonane-2-carbonyl)-1H-pyrazol-4-yl)acetamide]
 |  | 0 to 25% |  | 50 to 75% | ≥ 75% | ≥ 75% | CC(=O)N(C)c1cnn(C(=O)N2CCC3(CCN(Cc4ccc(N5CCOCC5)cc4)C3)C2)c1 (stereo not drawn) [Example 3, N-methyl-N-(1-(7-(4-morpholinobenzyl)-2,7-diazaspiro[4.4]nonane-2-carbonyl)-1H-pyrazol-4-yl)acetamide]
